Our source for the IC50 and Ki values is patent US9034866B2 (Genentech, Inc., priority 2012, dated 2015).

Broadly, the IC50 is the concentration at which inhibition is half-maximal. A word on the Ki: it is the dissociation constant of the complex between target and ligand, obtained from inhibition or displacement.

The test system of assay [1] is REL-A (p65) nuclear translocation in HeLa cells. As to the kind of experiment: REL-A nuclear translocation assay (classical NF-kB signaling), high content imaging. It is filed as cell-based. The following applies: Homo sapiens, compounds 4.5 hours, then 10 ng/mL TNF-α for 30 minutes, read-out: REL-A HeLa Transloc Assay (IC50). Here is the method:
(§1) (2) A second set of cell assay are used to define the selectivity of NIK inhibitors toward inhibition of classical vs. non-classical NF-kB signaling and rely on quantification of the nuclear translocation of p52 (NF-kB2) and REL-A (p65) using high content cellular imaging. For the p52 (non-classical NF-kB signaling) nuclear translocation assay, HeLa cells are treated with different concentrations of compounds (0.2% DMSO final) in medium containing 10% fetal bovine serum and then stimulated with 100 ng/mL, of an anti-lymphotoxin beta receptor antibody (R&D Systems) for 5 hours. In the REL-A nuclear translocation assay, HeLa cells are incubated with compounds (0.2% DMSO final) for 4.5 hours in medium containing 10% fetal bovine serum before stimulating them with 10 ng/mL tumor necrosis factor (TNF)-α (R&D Systems) for 30 minutes. Cells are fixed with 4% paraformaldehyde, permeabilized by adding 0.1% Triton X-100 in phosphate buffered saline, and then are incubated with either 2 ug/mL anti-p52 antibody (Millipore) or 400 ng/mL anti-REL-A (p65) antibody (Santa Cruz Biotechnology). Finally, the cells are incubated with an Alexa488-labeled secondary antibody (Invitrogen) and DRAQ5 DNA stain (Biostatus). Imaging is carried out using an Opera reader (Perkin Elmer) and data are analyzed with the aid of Acapella software (Perkin Elmer). The p52 or REL-A translocation into the nucleus is quantified by the ratio of the nuclear to cytoplasmic signal intensity. […] The compounds in listed in Table 1 have the corresponding inhibitory value (IC50 in micromolar) for NIK p52 Translocation Assay as set forth in Table 2.
The compounds in listed in Table 1 has the corresponding inhibitory value (IC50 in micromolar) for NIK RelA Translocation Assay as set forth in Table 2.

The subject of assay [2] is p52 (NF-kB2) nuclear translocation in HeLa cells. As to the kind of experiment: p52 nuclear translocation assay (non-classical NF-kB signaling), high content imaging. It is filed as cell-based. To be noted: Homo sapiens, 100 ng/mL anti-lymphotoxin beta receptor antibody for 5 hours, read-out: p52 HeLa Transloc Assay (IC50). Here is the method:
as §1

In assay [3] the target is nuclear factor-kappa B (NF-kB)-inducing kinase (NIK) (Homo sapiens (Human), UniProt Q99558). As to the kind of experiment: NIK Enzyme Inhibition Assay (Transcreener ADP fluorescence polarization). The following applies: purified NIK 0.2-1 nM, 10 uM ATP, Morrison's quadratic equation; read-out: NIK ADP-FP (Ki uM). It is filed as biochemical. The method in brief: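 Baculovirus/insect-cell-expressed NIK (0.2-1 nM) incubated with compounds 1-3.5 h at 10 uM ATP. Buffer: 50 mM HEPES pH 7.2, 10 mM MgCl2, 2 mM DTT, 1% DMSO. ADP detected by Transcreener fluorescence polarization (ADP antibody, AlexaFluor 633 tracer) after EDTA quench.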
Sequence of nuclear factor-kappa B (NF-kB)-inducing kinase (NIK) (Q99558 whole entry): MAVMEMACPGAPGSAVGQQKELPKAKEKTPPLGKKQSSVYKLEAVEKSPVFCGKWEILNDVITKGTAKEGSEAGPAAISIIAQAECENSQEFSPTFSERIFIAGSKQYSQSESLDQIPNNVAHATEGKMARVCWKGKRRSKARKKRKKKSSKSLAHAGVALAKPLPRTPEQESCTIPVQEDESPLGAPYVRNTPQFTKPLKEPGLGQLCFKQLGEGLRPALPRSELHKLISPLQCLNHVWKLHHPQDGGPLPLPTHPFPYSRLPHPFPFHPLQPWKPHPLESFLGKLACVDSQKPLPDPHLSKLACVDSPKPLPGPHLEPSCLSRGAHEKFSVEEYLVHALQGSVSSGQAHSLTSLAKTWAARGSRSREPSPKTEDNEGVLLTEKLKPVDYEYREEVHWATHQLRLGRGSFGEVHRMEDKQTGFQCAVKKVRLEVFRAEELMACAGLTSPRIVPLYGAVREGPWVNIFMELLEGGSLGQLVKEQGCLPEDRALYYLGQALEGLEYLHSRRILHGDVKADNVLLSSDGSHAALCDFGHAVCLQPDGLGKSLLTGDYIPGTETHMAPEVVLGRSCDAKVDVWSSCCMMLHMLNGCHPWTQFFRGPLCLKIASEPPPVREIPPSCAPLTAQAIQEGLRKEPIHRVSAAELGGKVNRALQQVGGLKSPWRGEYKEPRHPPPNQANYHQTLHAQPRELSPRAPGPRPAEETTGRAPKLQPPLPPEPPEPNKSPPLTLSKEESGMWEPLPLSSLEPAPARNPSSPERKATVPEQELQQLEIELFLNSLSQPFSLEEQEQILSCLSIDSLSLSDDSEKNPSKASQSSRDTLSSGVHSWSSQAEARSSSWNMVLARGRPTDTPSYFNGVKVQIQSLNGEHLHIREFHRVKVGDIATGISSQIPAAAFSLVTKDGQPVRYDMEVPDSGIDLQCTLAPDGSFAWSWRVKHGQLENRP
In general terms: Fluorescence polarisation rises when a labelled molecule tumbles more slowly, as on binding a larger partner.

Read-outs that look alike come from different tables or passages of the source. Some results are limits rather than exact numbers.

As to `CC(C)(O)C#Cc1ccc2c(c1)-c1nc(C(N)=O)c(-c3nnc(C4CC4)s3)n1C1CC2C1` [Example 390, 9-fluoro-10-(3-hydroxy-3-methyl-but-1-ynyl)-3-(trifluoromethyl)-5,6,7,12-tetrahydro-5,7-methanobenzo[c]imidazo[1,2-a]azepine-2-carboxamide], the IC50 is 9.5 µM in assay [1] (HeLa) and 1500 nM in assay [2] (HeLa, 5 h). On to `Cc1cc([C@](C)(O)C#Cc2ccc3c(c2)-c2nc(C(N)=O)c([C@@H](O)c4ccnn4C)n2C2CC3C2)no1` [Example 359], for which, in assay [2] (HeLa, 5 h), the IC50 amounted to 1200 nM.

Take `CN1CC[C@@](O)(C#Cc2ccc3c(c2)-c2nc(C(N)=O)c(C(=O)NC4CCOCC4)n2CCO3)C1=O` [Example 422, 9-fluoro-10-(3-hydroxy-3-methyl-but-1-ynyl)-3-(1-hydroxy-1-methyl-ethyl)-5,6,7,12-tetrahydro-5,7-methanobenzo[c]imidazo[1,2-a]azepine-2-carboxamide]: the IC50 in assay [1] (HeLa) was above 20 µM; in assay [2] (HeLa, 5 h), 406 nM. In the same order, the values of `CN1CC[C@@](O)(C#Cc2cc3c(cc2F)OCCn2c-3nc(C(N)=O)c2C2CC2)C1=O` [Example 418, 9-fluoro-10-(3-hydroxy-3-methyl-but-1-ynyl)-3-[[2-methoxyethyl(methyl)amino]methyl]-5,6,7,12-tetrahydro-5,7-methanobenzo[c]imidazo[1,2-a]azepine-2-carboxamide] are above 20 µM and 515 nM. On the same counts, the results for `NC(=O)c1nc2n(c1C(O)c1ccn[nH]1)C1CC(C1)c1cc(F)c(C#CC3(O)CCCC3)cc1-2` (racemic) [Example 310] are above 20 µM and 2600 nM. In the same order, the values of `Cc1cc([C@](C)(O)C#Cc2ccc3c(c2)-c2nc(C(N)=O)c(CN4CCCC4)n2C2CC3C2)no1` [Example 424, 10-(3-hydroxy-3-methyl-but-1-ynyl)-N3-methyl-5,6,7,12-tetrahydro-5,7-methanobenzo[c]imidazo[1,2-a]azepine-2,3-dicarboxamide] are above 20 µM and 3200 nM. Consider `Cc1cc([C@@](C)(O)C#Cc2ccc3c(c2)-n2nc(C(N)=O)cc2[C@@H](C)CO3)no1` [Example 519], for which the IC50 in assay [1] (HeLa) is above 20 µM. For `CN1CC[C@@](O)(C#Cc2ccc3c(c2)-c2nc(C(N)=O)sc2C(F)(F)CO3)C1=O` [Example 406, 10-[(3R)-3-hydroxy-3-(5-methylisoxazol-3-yl)but-1-ynyl]-N3,N3-dimethyl-5,6,7,12-tetrahydro-5,7-methanobenzo[c]imidazo[1,2-a]azepine-2,3-dicarboxamide], the IC50 in assay [1] (HeLa) was above 20 µM; in assay [2] (HeLa, 5 h), 76.1 nM. In the same order, the values of `NC(=O)c1nc2n(c1C1CC1)C1CC(C1)c1cc(F)c(C#C[C@]3(O)CCNC3=O)cc1-2` [Example 338, 3-cyclopropyl-9-fluoro-10-[2-[(3R)-3-hy-droxy-2-oxo-pyrrolidin-3-yl]ethynyl]-5,6,7,12-tetrahydro-5,7-methano-benzo[c]imidazo[1,2-a]azepine-2-carboxamide] are above 20 µM and 3000 nM. In the same order, the values of `Cn1nccc1C(O)c1c(C(N)=O)nc2n1C1CC(C1)c1cc(F)c(C#CC3(O)CCCC3)cc1-2` (stereo not drawn) [Example 304, 9-fluoro-10-[2-(1-hydroxycyclopen-tyl)ethynyl]-3-[hydroxy-(2-methylpyrazol-3-yl)methyl]-5,6,7,12-tetrahydro-5,7-meth-anobenzo[c]imidazo[1,2-a]azepine-2-car-boxamide] are above 20 µM and 1100 nM. Turning to `Cc1cc([C@@](C)(O)C#Cc2ccc3c(c2)-n2nc(C(N)=O)cc2[C@H](C)CO3)no1` (racemic) [Example 513], in assay [1] (HeLa), the IC50 was above 20 µM.

For `CC(C)(O)C#Cc1cc2c(cc1F)C1CC(C1)n1c-2nc(C(N)=O)c1C(C)(C)O` [Example 248, 9-fluoro-10-(3-hydroxy-3-methyl-but-1-ynyl)-3-(1-hydroxy-1-methyl-ethyl)-5,6,7,12-tetrahydro-5,7-methanobenzo[c]imi-dazo[1,2-a]azepine-2-carboxamide], the figures for the IC50 in assay [1] and in assay [2] were above 20 µM and 1400 nM, respectively. For `Cc1nc([C@](C)(O)C#Cc2ccc3c(c2)-c2nc(C(N)=O)sc2[C@](C)(F)CO3)no1` [Example 469], in assay [1] (HeLa), the IC50 is above 20 µM. As for `Cc1cc([C@](C)(O)C#Cc2cc3c(cc2F)C2CC(C2)n2c-3nc(C(N)=O)c2CNC(=O)C2CC2)no1` [Example 363], the IC50 in assay [1] was above 20 µM; in assay [2], 660 nM. Consider `CN1CC[C@@](O)(C#Cc2ccc3c(c2)-n2nc(C(N)=O)cc2[C@H](F)CO3)C1=O`, for which the IC50 in assay [1] (HeLa) is above 20 µM. As for `CN1CCC(O)(C#Cc2ccc3c(c2)-c2nc(C(N)=O)sc2CCO3)C1=O` (racemic), the IC50 was above 20 µM in assay [1] (HeLa) and 300 nM in assay [2] (HeLa, 5 h). For the molecule `CNC(=O)c1c(C(N)=O)nc2n1CCOc1cc(F)c(C#CC(C)(O)CF)cc1-2` (stereo not drawn) [Example 109], the IC50 in assay [2] was 272 nM.

Turning to `Cc1nc([C@](C)(O)C#Cc2cc3c(cc2F)C2CC(C2)n2cc(C(N)=O)nc2-3)no1`, the Ki in assay [3] was determined as 0.003 µM. The IC50 in assay [2] (HeLa, 5 h) was determined as 792 nM. Turning to `C[C@H]1COc2ccc(C#C[C@]3(O)CCCN(C)C3=O)cc2-c2nc(C(N)=O)sc21` (racemic) [Example 501], the IC50 in assay [1] (HeLa) is above 20 µM. Same read-out and setting: to `Cc1cc([C@](C)(O)C#Cc2cc3c(cc2F)OC[C@@H](N(C)C)c2sc(C(N)=O)nc2-3)no1` [Example 254] belongs 20 µM.

As for `CC(C)(O)C#Cc1cc2c(cc1F)OCCn1c-2nc(C(N)=O)c1-c1nc(C2CC2)n[nH]1`, the Ki in assay [3] turned out to be 0.002 µM. For the same molecule, the IC50 in assay [2] (HeLa, 5 h) came out at 112 nM. Turning to `C[C@@H]1COc2ccc(C#C[C@]3(O)CCCN(C)C3=O)cc2-c2nc(C(N)=O)sc21` [Example 493, 10-[2-[(3R)-3-hydroxy-1-methyl-2-oxo-pyrrolidin-3-yl]ethynyl]-N3-methyl-5,6,7,12-tetrahydro-5,7-methanobenzo[c]imidazo[1,2-a]azepine-2,3-dicarboxamide], the IC50 in assay [1] (HeLa) is above 20 µM. With `CC(O)(C#Cc1cc2c(cc1F)C1CC(C1)n1cc(C(N)=O)nc1-2)CF` (racemic), the inhibition constant (Ki) in assay [3] stood at 0.0031 µM. The IC50 in assay [2] (HeLa, 5 h) was determined as 424 nM. In the same order, the values of `CNC(=O)c1c(C(N)=O)nc2n1C1CC(C1)c1cc(F)c(C#C[C@@](C)(O)c3cc(C)on3)cc1-2` are 0.008 µM and 683 nM.

For `Cc1cc([C@](C)(O)C#Cc2ccc3c(c2)-c2nc(C(N)=O)c([C@H](O)c4ccnn4C)n2C2CC3C2)no1`, the IC50 in assay [2] (HeLa, 5 h) stood at 1200 nM. With `Cc1nc([C@](C)(O)C#Cc2ccc3c(c2)-c2nc(C(N)=O)sc2[C@@H](C)CO3)no1` (racemic), the IC50 in assay [1] (HeLa) was above 20 µM. Still for that read-out and setting: to `CN1CC[C@@](O)(C#Cc2ccc3c(c2)-c2nc(C(N)=O)sc2[C@](O)(CF)CO3)C1=O` [Example 465] belongs above 20 µM; to `Cc1nc([C@](C)(O)C#Cc2ccc3c(c2)-c2nc(C(N)=O)sc2[C@H](F)CO3)no1` [Example 464], above 20 µM. Same read-out and setting: to `Cc1nc([C@](C)(O)C#Cc2ccc3c(c2)-c2nc(C(N)=O)sc2[C@@H](F)CO3)no1` belongs above 20 µM. For the molecule `CC(C)(O)C#Cc1cc2c(cc1F)OCCn1c-2nc(C(N)=O)c1C(O)c1cccc(C(F)(F)F)c1` (stereo not drawn), the Ki in assay [3] is 0.019 µM. In addition, the IC50 in assay [2] (HeLa, 5 h) was found to be 344 nM. In the case of `CNC(=O)c1c(C(N)=O)nc2n1CCOc1cc(F)c(C#CC(C)(O)COC)cc1-2` (stereo not drawn) [Example 108], the IC50 in assay [1] came to 20 µM. `Cc1cc([C@](C)(O)C#Cc2cc3c(cc2F)OC[C@H](N(C)C)c2sc(C(N)=O)nc2-3)no1` (single isomer, unassigned) [Example 257]: in assay [1] (HeLa), the IC50 stood at 20 µM. On to `Cc1nc([C@](C)(O)C#Cc2ccc3c(c2)-c2nc(C(N)=O)sc2[C@@](C)(F)CO3)no1`, for which the IC50 in assay [1] (HeLa) is above 20 µM. As for `CC(O)(C#Cc1cc2c(cc1F)OCCn1cc(C(N)=O)nc1-2)c1nccs1` (stereo not drawn) [Example 144], the half-maximal inhibitory concentration (IC50) in assay [2] (HeLa, 5 h) was 483 nM. `Cc1cc([C@](C)(O)C#Cc2cc3c(cc2C)OCCn2cc(C(N)=O)nc2-3)no1` [Example 38, 9-[(R)-3-hydroxy-3-(5-methyl-isoxazol-3-yl)-but-1-ynyl]-8-methyl-4,5-dihydro-6-oxa-1,3a-diaza-benzo[e]azulene-2-car-boxylic acid amide]: the inhibition constant (Ki) in assay [3] was 0.062 µM.
